Converted amounts (≈) assume the structure as drawn. “And” between values parts separate entries of the source, which are not always exact repeats. Equal entries are not always repeated.
How the values were obtained:
S. aureus ATCC 29213 = experiment: MTT assay, inhibition of bacterial respiration; type: cell-based, Staphylococcus aureus
Text: The MTT assay can be used to assess cell growth by measuring respiration. Respiratory activity of bacterial cells (which is finally reflected in their viability) less than 70% after exposure to the MIC values for each tested compound is considered as a positive result of this assay. This low level of cell oxidative metabolism indicates inhibition of cell growth by inhibition of respiration. The lowest multiples of MIC values that achieved more than 70% inhibition of S. aureus ATCC 29213 viability (%) are shown in Table 3.
The percent inhibition of respiration of S. aureus ATCC 29213 was determined through the MTT assay. The assay was performed as described recently. The percent viability is calculated through the comparison of a measured value and that of the uninhibited control: % viability = OD570E/OD570P × 100, where OD570E is the reading from the compound-exposed cells, while OD570P is the reading from the uninhibited cells (positive control). Cytotoxic potential is determined by a percent viability of <70% [46, 47].

[1] = tested on: methicillin-resistant S. aureus SA 3202 (MRSA1); experiment: MIC, microtitration broth method; type: cell-based; details: Staphylococcus aureus; MRSA SA 3202
[2] = tested on: Staphylococcus aureus ATCC 29213; experiment: MIC, microtitration broth method; type: cell-based; details: ATCC29213, S. aureus ATCC 29213
[3] = tested on: methicillin-resistant S. aureus SA 630 (MRSA2); experiment: MIC, microtitration broth method; type: cell-based; details: Staphylococcus aureus; MRSA SA 630
[4] = tested on: methicillin-resistant S. aureus 63718 (MRSA3); experiment: MBC, agar aliquot subculture method; type: cell-based; details: Staphylococcus aureus; MRSA 63718
[5] = tested on: Staphylococcus aureus ATCC 29213; experiment: MBC, agar aliquot subculture method; type: cell-based; details: ATCC29213, S. aureus ATCC 29213
[6] = Lipophilicity determination by RP-HPLC; type: physicochemical; details: RP-HPLC, logarithm of capacity factor k
Procedure: It is evident from the graphs in Figure 1 that the correlation coefficients of the dependences of log k/log D6.5/log D7.4 have a value of r = 0.999 (n = 32), which means that the investigated compounds behave insignificantly differently in aqueous media with different pH. Moreover, lipophilicity was calculated as log P and Clog P using two prediction programs. […] Therefore, only log P values predicted by ACD/Percepta can be used for correlations with experimental values. These matches are shown in the graphs in Figure 2, and according to the correlation coefficient r~0.940 (n = 32), it can be argued that even the predicted lipophilicity values correlate with the experimentally measured ones. However, the largest variations were observed (no difference for series 1, 2) for compounds substituted with 2-Cl, 2-CF3, 2,5-Cl, 4-F, 4-CF3, and 3,5-F, 3,5-Cl. These are mainly substituents capable of forming hydrogen and other types of non-bonding interactions both with the surrounding environment and within the molecule. Overall, series 1 (3-CF3) is less lipophilic than series 2 (4-CF3), but the differences in the experimental data are insignificant. Unsubstituted derivatives 1a/2a are the least lipophilic compounds, while derivatives 1o/2o (3,5-Cl) and 1p/2p (3,5-CF3) are the most lipophilic compounds.
Experimental determination of lipophilicity values (log k, log D6.5, and log D7.4) was performed under the same conditions and on the same device as described by Strharsky et al..

M. smegmatis ATCC 700084 = experiment: In vitro antimycobacterial evaluation (MIC); type: cell-based, Mycobacterium smegmatis; details: Mycolicibacterium smegmatis, ATCC700084
[7] = tested on: methicillin-resistant S. aureus SA 630 (MRSA2); experiment: MBC, agar aliquot subculture method; type: cell-based; details: Staphylococcus aureus; MRSA SA 630
[8] = tested on: human monocytic leukemia cell line THP-1; experiment: In vitro cell viability (cytotoxicity screening); type: cell-based; details: 24 h, medium with 10% FBS, ± SD, n = 6
Procedure: The investigated anilides can be divided into three groups. […] Higher concentrations (than 10 or 30 µM) were not possible to evaluate due to precipitation of the tested compounds in water medium. Based on all these observations, it can be concluded that the high antimicrobial activity of 3,5-CF3-substituted compounds is associated with significant cytotoxic effect against eukaryotic cells. On the other hand, the other still effective compounds, especially agents 1j and 1o, have an insignificant toxic effect, which makes them interesting for further study.
Human monocytic leukemia THP-1 cells obtained from the European Collection of Cell Cultures (ECACC, Salisbury, UK) were used for in vitro antiproliferative assays. A recently described procedure was used.

[9] = tested on: methicillin-resistant S. aureus 63718 (MRSA3); experiment: MIC, microtitration broth method; type: cell-based; details: Staphylococcus aureus; MRSA 63718
[10] = tested on: methicillin-resistant S. aureus SA 3202 (MRSA1); experiment: MBC, agar aliquot subculture method; type: cell-based; details: Staphylococcus aureus; MRSA SA 3202
[11] = tested on: Enterococcus faecalis ATCC 29212; experiment: MBC, agar aliquot subculture method; type: cell-based; details: ATCC29212, E. faecalis reference strain
[12] = tested on: vancomycin-resistant E. faecalis VRE 342B (VRE1); experiment: MIC, microtitration broth method; type: cell-based, Enterococcus faecalis
S. aureus/MRSA = experiment: Antistaphylococcal activity, summary over strains; type: cell-based, Staphylococcus aureus
[13] = tested on: vancomycin-resistant E. faecalis VRE 368 (VRE2); experiment: MBC, agar aliquot subculture method; type: cell-based, Enterococcus faecalis
[14] = tested on: vancomycin-resistant E. faecalis VRE 342B (VRE1); experiment: MBC, agar aliquot subculture method; type: cell-based, Enterococcus faecalis
[15] = tested on: vancomycin-resistant E. faecalis VRE 725B (VRE3); experiment: MBC, agar aliquot subculture method; type: cell-based, Enterococcus faecalis
[16] = tested on: vancomycin-resistant E. faecalis VRE 725B (VRE3); experiment: MIC, microtitration broth method; type: cell-based, Enterococcus faecalis
[17] = tested on: vancomycin-resistant E. faecalis VRE 368 (VRE2); experiment: MIC, microtitration broth method; type: cell-based, Enterococcus faecalis
E. faecalis/VRE = experiment: Anti-enterococcal activity, summary over strains; type: cell-based, Enterococcus faecalis
[18] = tested on: Enterococcus faecalis ATCC 29212; experiment: MIC, microtitration broth method; type: cell-based; details: ATCC29212, E. faecalis reference strain
[19] = tested on: M. smegmatis and M. marinum; experiment: Antimycobacterial activity, summary over both strains; type: cell-based; details: average over the named compounds and strains; read-out: average MIC against M. smegmatis and M. marinum

## O=C(/C=C/c1cccc(C(F)(F)F)c1)Nc1cccc(Cl)c1 [1f, (2E)-N-(3-Chlorophenyl)-3-[3-(trifluoromethyl)phenyl]prop-2-enamide]
S. aureus ATCC 29213
  Conc.: lowest multiple of MIC with at least 70% inhibition of respiratory activity: 1× MIC (1× MBC)
  Conc.: the same concentration as multiple of MBC: 1× MIC (1× MBC)
[1]
  MIC: 6.14 µM (≈ 2 µg/mL)
[2]
  MIC: 12.3 µM (≈ 4.01 µg/mL)
[3]
  MIC: 6.14 µM (≈ 2 µg/mL)
[4]
  MBC: 12.3 µM (≈ 4.01 µg/mL)
[5]
  MBC: 12.3 µM (≈ 4.01 µg/mL)
[6]
  log k: 0.8016
M. smegmatis ATCC 700084
  MIC: 24.6 µM (≈ 8.01 µg/mL)
[7]
  MBC: 6.14 µM (≈ 2 µg/mL)
[8]
  IC50: > 10 µM
[9]
  MIC: 6.14 µM (≈ 2 µg/mL)
other
  melting point: 126 to 128 °C
[10]
  MBC: 6.14 µM (≈ 2 µg/mL)

## O=C(/C=C/c1cccc(C(F)(F)F)c1)Nc1ccc(Cl)cc1 [1g, (2E)-N-(4-Chlorophenyl)-3-[3-(trifluoromethyl)phenyl]prop-2-enamide]
S. aureus ATCC 29213
  Conc.: lowest multiple of MIC with at least 70% inhibition of respiratory activity: 4 × MIC
  Conc.: the same concentration as multiple of MBC: 2 × MBC
[1]
  MIC: 12.3 µM (≈ 4.01 µg/mL)
[2]
  MIC: 24.6 µM (≈ 8.01 µg/mL)
[3]
  MIC: 6.14 µM (≈ 2 µg/mL)
[4]
  MBC: 24.6 µM (≈ 8.01 µg/mL)
[5]
  MBC: 49.1 µM (≈ 16 µg/mL)
[6]
  log k: 0.7982
M. smegmatis ATCC 700084
  MIC: 24.6 µM (≈ 8.01 µg/mL)
[7]
  MBC: 6.14 µM (≈ 2 µg/mL)
[8]
  IC50: > 10 µM
[9]
  MIC: 12.3 µM (≈ 4.01 µg/mL)
other
  melting point: 162 to 164 °C
[10]
  MBC: 24.6 µM (≈ 8.01 µg/mL)

## O=C(/C=C/c1cccc(C(F)(F)F)c1)Nc1cc(Cl)cc(Cl)c1 [1o, (2E)-N-(3,5-Dichlorophenyl)-3-[3-(trifluoromethyl)phenyl]prop-2-enamide]
[11]
  MBC: 22.2 µM (≈ 8 µg/mL)
S. aureus ATCC 29213
  Conc.: lowest multiple of MIC with at least 70% inhibition of respiratory activity: 0.25× MIC (0.25× MBC)
  Conc.: the same concentration as multiple of MBC: 0.25× MIC (0.25× MBC)
[12]
  MIC: 22.2 µM (≈ 8 µg/mL)
S. aureus/MRSA; Staphylococcus aureus, MRSA, average over the named compounds and strains, read-out: average MIC against S. aureus/MRSA
  MIC: ~1.4 µM (≈ 0.504 µg/mL)
S. aureus/MRSA; range over S. aureus and MRSA isolates and over the named compounds
  antistaphylococcal MICs/MBCs: 0.15 to 5.57 µM and 0.146 to 5.57 µM
[1]
  MIC: 1.39 µM (≈ 0.501 µg/mL)
[2]
  MIC: 0.694 µM (≈ 0.25 µg/mL)
[3]
  MIC: 0.694 µM (≈ 0.25 µg/mL)
[13]
  MBC: 22.2 µM (≈ 8 µg/mL)
[4]
  MBC: 1.39 µM (≈ 0.501 µg/mL)
[5]
  MBC: 0.694 µM (≈ 0.25 µg/mL)
[6]
  log k: 1.2028
M. smegmatis ATCC 700084
  MIC: 11.1 µM (≈ 4 µg/mL)
[7]
  MBC: 0.694 µM (≈ 0.25 µg/mL)
[14]
  MBC: 22.2 µM (≈ 8 µg/mL)
[15]
  MBC: 22.2 µM (≈ 8 µg/mL)
[8]
  IC50: > 30 µM
[9]
  MIC: 0.694 µM (≈ 0.25 µg/mL)
[16]
  MIC: 22.2 µM (≈ 8 µg/mL)
[17]
  MIC: 22.2 µM (≈ 8 µg/mL)
E. faecalis/VRE; Enterococcus faecalis, VRE, average over the named compounds and strains, read-out: average MIC against E. faecalis/VRE
  MIC: ~15 µM (≈ 5.4 µg/mL)
E. faecalis/VRE; range over E. faecalis and VRE isolates and over the named compounds
  anti-enterococcal MICs/MBCs: 2.34 to 44.5 µM
[18]
  MIC: 11.1 µM (≈ 4 µg/mL)
other
  melting point: 124 to 126 °C
[10]
  MBC: 2.78 µM (≈ 1 µg/mL)

## O=C(/C=C/c1cccc(C(F)(F)F)c1)Nc1cc(C(F)(F)F)cc(C(F)(F)F)c1 [1p, (2E)-N-[3,5-bis(Trifluoromethyl)phenyl]-3-[3-(trifluoromethyl)phenyl]prop-2-enamide]
S. aureus ATCC 29213
  Conc.: lowest multiple of MIC with at least 70% inhibition of respiratory activity: 1× MIC (1× MBC)
  Conc.: the same concentration as multiple of MBC: 1× MIC (1× MBC)
[1]
  MIC: 2.34 µM (≈ 1 µg/mL)
[19]
  MIC: ~4.1 µM (≈ 1.75 µg/mL)
[2]
  MIC: 1.17 µM (≈ 0.5 µg/mL)
[3]
  MIC: 1.17 µM (≈ 0.5 µg/mL)
[4]
  MBC: 1.17 µM (≈ 0.5 µg/mL)
[5]
  MBC: 1.17 µM (≈ 0.5 µg/mL)
[6]
  log k: 1.3648
M. smegmatis ATCC 700084
  MIC: 9.36 µM (≈ 4 µg/mL)
[7]
  MBC: 1.17 µM (≈ 0.5 µg/mL)
[8]
  IC50: 6.7 ± 1.1 µM
[9]
  MIC: 0.585 µM (≈ 0.25 µg/mL)
other
  melting point: 147 to 149 °C
[10]
  MBC: 2.34 µM (≈ 1 µg/mL)

Source: paper PMC9737391, “Trifluoromethylcinnamanilide Michael Acceptors for Treatment of Resistant Bacterial Infections” (International Journal of Molecular Sciences, 2022)
